Tests used:
femoral neck BMD = tested on: femoral neck BMD; parameters: method as in PMID 11346808; details: Fracture Prevention Trial; after 2 years of 20 μg daily; cited from earlier work
[1] = parameters: method as in PMID 31243480; details: Fracture Prevention Trial; 20 μg; cited from earlier work
lumbar spine BMD = tested on: lumbar spine BMD; parameters: method as in PMID 11346808; details: Fracture Prevention Trial; after 2 years of 20 μg daily; cited from earlier work
lumbar spine (L2–L4) BMD = tested on: lumbar spine (L2–L4) BMD; parameters: method as in PMID 31243480; details: study of biosimilar approved in Japan; cited from earlier work
[2] = tested on: lumbar spine BMD in postmenopausal women with osteoporosis; experiment: Percent change in lumbar spine BMD by DXA, phase III study; assay type: in vivo, human; details: for Percent change in lumbar spine BMD from baseline at Week 24, LSM ± SE / Percent change in lumbar spine BMD from baseline at Week 48, LSM ± SE: mITT population, LOCF, 20 μg s.c. once daily, DXA
Procedure: (§1) A multicenter, randomized, active‐controlled, double‐blind, parallel‐group phase III study was conducted between August 2018 and August 2020 at 17 sites in India. The study was conducted as per the principles and requirements of the Declaration of Helsinki (2013), and ICH‐GCP (E6‐R2, Step 4) guidelines along with the local regulatory requirements of Good Clinical Practices for Clinical Research in India (2004), ICMR guidelines for Biomedical Research on Human Subjects (2017) and New Drugs and Clinical Trial Rules, 2019 (CDSCO) and after approvals from respective Institutional Ethics Committees. The study was registered on the Clinical Trial Registry of India (CTRI/2018/05/014254).
(§2) After signing of the informed consent form, the subjects were screened to assess eligibility according to the study selection criteria. Postmenopausal women between the ages of 50–80 years with BMD T‐SCORE less than −2.5 at the lumbar spine or femoral neck were enrolled in the study.
(§3) All participants were provided with daily oral supplementation of 1000 mg of calcium and 500 IU of vitamin D3.
(§4) Medications known to affect bone metabolism, such as bisphosphonates, raloxifene, and denosumab, as well as drugs associated with reduced bone density, including glucocorticoids, aromatase inhibitors, and tamoxifen, were prohibited during the study. Throughout the treatment period, data were collected for primary and secondary endpoints. BMD was evaluated using dual‐energy X‐ray absorptiometry (DXA) as part of the efficacy assessments. Laboratory samples were collected during the treatment phase to support efficacy and safety evaluations, and all laboratory analyses were conducted at a central laboratory.
(§5) The primary endpoint of the study was the percent change in BMD of the lumbar spine and proximal femur, assessed using dual‐energy X‐ray absorptiometry (DXA) from baseline to Weeks 24 and 48. All DXA measurements were analyzed centrally, and the results were not disclosed to individual study centers to ensure unbiased interpretation. Secondary endpoints included the change from baseline in the pharmacodynamic parameter serum P1NP (procollagen type 1 N terminal propeptide), which was assessed at randomization and Weeks 12, 24, and 48. […] Serum biochemistry analyses were performed at baseline and at Weeks 4, 12, 24, and 48.
(§6) The efficacy analysis was performed on all the subjects in mITT (modified intention‐to‐treat) and PP (per protocol) population. Any missing postbaseline data were imputed using the last observation carried forward (LOCF) procedure. For the analysis of change from baseline to Week 12 (for P1NP), Week 24, and Week 48, a regression model with percent change from baseline as the response variable and the stratification variable was used for randomization, and treatment as independent variables was fit to test the mean difference between the two treatments in percent change. Adjusted least square mean (LSM) and the standard error values along with the p value and the 95% confidence interval (CI) of the difference were presented.

[3] = Pharmacokinetic sub-study, plasma teriparatide on Day 1; assay type: in vivo, human; details: Day 1, 20 μg s.c., sampling to 240 min, noncompartmental, n = 15 per arm
Procedure: Pharmacokinetic (PK) assessments were performed on a subset of subjects who voluntarily consented to participate in an additional PK sub‐study alongside the main study. […] Blood samples for PK analysis were collected at the study site on Day 1 (Visit 2, i.e., the randomization visit) at specified time points: pre‐dose (within 30 min before the first investigational product [IP] administration) and at 5‐, 10‐, 20‐, 30‐, 45‐, 60‐, 90‐, 120‐, 180‐, and 240‐min post‐IP administration.
PK parameters (C max, AUC0–t , and T max) measured in plasma were calculated by noncompartmental methods, using Phoenix software for the PK population on Day 1. Descriptive statistics (number of subjects [n], mean, standard deviation, median, minimum, and maximum [range]) were calculated for all evaluable PK parameters by treatment group for the PK population.

[4] = tested on: femoral neck BMD in postmenopausal women with osteoporosis; experiment: Percent change in femoral neck BMD by DXA, phase III study; assay type: in vivo, human; details: for percent change in femoral neck BMD from baseline to 48 weeks (LSM ± SE): as given in the abstract, population not given; for percent change in femoral neck BMD from baseline to 48 weeks (LSM ± SE) / Percent change in femoral neck BMD from baseline at Week 24, LSM ± SE / Percent change in femoral neck BMD from baseline at Week 48, LSM ± SE: 20 μg s.c. once daily; for Percent change in femoral neck BMD from baseline at Week 24, LSM ± SE / Percent change in femoral neck BMD from baseline at Week 48, LSM ± SE: mITT population, LOCF, DXA
Procedure: as §1, §2, §3, §4, §5, §6

[5] = tested on: serum P1NP (procollagen type 1 N terminal propeptide); experiment: Change from baseline in serum P1NP (bone turnover marker); assay type: in vivo, human; details: mITT population; 20 μg s.c. once daily
Procedure: as §3, §5, §6

[6] = biosimilar versus reference teriparatide, mITT
[7] = versus reference teriparatide, Week 24 and Week 48, mITT
[8] = listed as Proposed biosimilar teriparatide (T)
[9] = listed as Reference teriparatide (R)

| Substance | percent change from baseline to 52 weeks in lumbar spine (L2–L4) BMD (mean ± SE) (lumbar spine (L2–L4) BMD) | Percent change in lumbar spine BMD from baseline at Week 24, LSM ± SE [2] [%] | Percent change in lumbar spine BMD from baseline at Week 48, LSM ± SE [2] [%] | percent change in femoral neck BMD from baseline to 48 weeks (LSM ± SE) [4] | Percent change in femoral neck BMD from baseline at Week 24, LSM ± SE [4] [%] | Percent change in femoral neck BMD from baseline at Week 48, LSM ± SE [4] | Serum P1NP concentration, change from baseline to Week 12 (LSM ± SE) [5] | Serum P1NP concentration, change from baseline to Week 24 (LSM ± SE) [5] | Serum P1NP concentration, change from baseline to Week 48 (LSM ± SE) [5] | also measured |
| --- | --- | --- | --- | --- | --- | --- | --- | --- | --- | --- |
| teriparatide |  |  |  |  |  |  |  |  |  | percentage increase in BMD at the femoral neck (mean ± SE) (femoral neck BMD): 2.8 ± 5.7%; TEAE dizziness [1]: 9%; TEAE leg cramps [1]: 3%; percentage increase in BMD at the lumbar spine (mean ± SE) (lumbar spine BMD): 9.7 ± 7.4% |
| RGB‐10: proposed biosimilar teriparatide approved in Japan | 8.94% ± 6.19% |  |  |  |  |  |  |  |  |  |
| teriparatide [Biosimilar teriparatide] |  | 7.16 ± 0.82 | 8.46 ± 0.94 | 3.94% ± 0.83 | 3.37 ± 0.78 | 4.03 ± 0.96 (p = 0.003) % | 24.38 ± 4.44 | 33.05 ± 7.00 | 48.52 ± 7.24 | estimated between-group difference (95% CI), lumbar spine BMD percent change to 48 weeks ([2]; abstract, biosimilar versus reference, noninferiority margin −2.43%): −0.56%; LSM difference (95% CI), lumbar spine BMD percent change at Week 24 [2, 6]: −0.410 (−3.191, 2.372); LSM difference (95% CI), lumbar spine BMD percent change at Week 48 [2, 6]: −0.754 (−4.011, 2.502); noninferiority in lumbar spine BMD percentage change [2, 7]: noninferiority; AUC(0–t), geometric least squares mean [3, 8]: 6132.45 min; C max, geometric least squares mean [3, 8]: 0.10879 ng/mL; estimated between-group difference (95% CI), femoral neck BMD percent change to 48 weeks ([4]; abstract, biosimilar versus reference, noninferiority margin −1.44%): 1.44%; LSM difference (95% CI), femoral neck BMD percent change at Week 24 [4, 6]: 1.576 (−1.048, 4.199); LSM difference (95% CI), femoral neck BMD percent change at Week 48 [4, 6]: 0.173 (−3.146, 3.493); noninferiority in femoral neck BMD percentage change [4, 7]: noninferiority |
| teriparatide [Reference teriparatide, reference compound] | 9.65% ± 6.22% | 7.57 ± 1.13 | 9.22 ± 1.34 | 2.50% ± 1.20 | 1.79 ± 1.07 | 3.86 ± 1.24 (p = 0.024) % | 21.95 ± 6.02 | 51.07 ± 9.63 | 34.30 ± 9.98 | AUC(0–t), geometric least squares mean [3, 9]: 6387.59 min; C max, geometric least squares mean [3, 9]: 0.10589 ng/mL |
